#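 1) Cells in 96-well plates. 2) Compound, 48 h, 5 concentrations. 3) Linear interpolation between surrounding doses. 4) Unreached endpoint = highest concentration. Here, GI50 denotes the concentration required for 50% inhibition of growth. TGI: concentration producing complete growth inhibition.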
# What was measured:
# Test in all cases: DTP human tumour cell line panel, 48 h
# HL-60(TB) leukemia = test system: HL-60(TB) leukemia
# K-562 leukemia = test system: K-562 leukemia
# KM12 colon = test system: KM12 colon
# OVCAR-3 ovarian = test system: OVCAR-3 ovarian
# OVCAR-4 ovarian = test system: OVCAR-4 ovarian
# RPMI-8226 leukemia = test system: RPMI-8226 leukemia
# RXF 393 renal = test system: RXF 393 renal
# SF-268 CNS = test system: SF-268 CNS
# SK-OV-3 ovarian = test system: SK-OV-3 ovarian
# SN12C renal = test system: SN12C renal
Structure (SMILES),GI50 (HL-60(TB) leukemia),TGI (HL-60(TB) leukemia),GI50 (K-562 leukemia),TGI (K-562 leukemia),GI50 (KM12 colon),TGI (KM12 colon),GI50 (OVCAR-3 ovarian),TGI (OVCAR-3 ovarian),GI50 (OVCAR-4 ovarian),TGI (OVCAR-4 ovarian),GI50 (RPMI-8226 leukemia),TGI (RPMI-8226 leukemia),GI50 (RXF 393 renal),TGI (RXF 393 renal),GI50 (SF-268 CNS),TGI (SF-268 CNS),GI50 (SK-OV-3 ovarian),TGI (SK-OV-3 ovarian),GI50 (SN12C renal),TGI (SN12C renal)
O=[N+]([O-])c1ccc2c(c1)[O][Sn][O]2,36.5 µg/mL,> 150 µg/mL,40.2 µg/mL,> 150 µg/mL,37.6 µg/mL,> 150 µg/mL,48.1 µg/mL,> 150 µg/mL,> 150 µg/mL,> 150 µg/mL,17.8 µg/mL,> 150 µg/mL,8.22 µg/mL,> 150 µg/mL,47.6 µg/mL,> 150 µg/mL,> 150 µg/mL,> 150 µg/mL,> 150 µg/mL,> 150 µg/mL
CCOc1c(Cl)cc(CNC(C)C(O)c2ccccc2)cc1OC (stereo not given),21.1 µM,46.1 µM,20.9 µM,68.9 µM,22.5 µM,49.2 µM,40.1 µM,> 100 µM,21.6 µM,87.4 µM,25.5 µM,57.7 µM,16.4 µM,52.1 µM,42.1 µM,> 100 µM,41.1 µM,> 100 µM,38.7 µM,> 100 µM
O=c1[nH]c(=O)n(C2OC3COC2C3O)cc1F (stereo not given),,> 100 µM,,> 100 µM,,> 100 µM,,> 100 µM,,> 100 µM,,> 100 µM,,> 100 µM,,> 100 µM,,> 100 µM,,> 100 µM
CCOC(=O)COS(=O)(=O)C(F)(F)F,,> 100 µM,,> 100 µM,,> 100 µM,,> 100 µM,,> 100 µM,,50.5 µM,,> 100 µM,,> 100 µM,,> 100 µM,,> 100 µM
NC(=O)c1ccc(C2C3=C(CCCC3=O)OC3=C2C(=O)c2ccccc2C3=O)cc1 (stereo not given),0.239 µM,0.538 µM,0.391 µM,1.96 µM,1.34 µM,4.52 µM,0.276 µM,0.852 µM,0.228 µM,0.95 µM,0.521 µM,2.63 µM,1.43 µM,2.87 µM,0.466 µM,1.93 µM,2.12 µM,4.11 µM,0.32 µM,1.17 µM
O=C1CC(=O)OC(c2ccc([N+](=O)[O-])cc2)O1,2.01 µM,5.51 µM,2.56 µM,> 100 µM,1.95 µM,4.03 µM,1.77 µM,3.37 µM,2.82 µM,8.91 µM,2.51 µM,7.33 µM,1.77 µM,3.23 µM,2.93 µM,11 µM,7.05 µM,19.2 µM,1.94 µM,4.23 µM
Cc1nn(-c2ccccc2)c(-c2ccccc2[N+](=O)[O-])c1CC#N,,> 100 µM,,> 100 µM,,> 100 µM,,> 100 µM,,> 100 µM,,> 100 µM,,> 100 µM,,> 100 µM,,> 100 µM,,> 100 µM

# — PubChem BioAssay (NCI)
